Data on one compound can be found in patent US8541441B2, “Selective glycosidase inhibitors and uses thereof” (Simon Fraser University, priority 2008, dated 2013).

One experiment addresses T1, O-GlcNAcase (Homo sapiens, UniProt O60502).
T1 sequence (O60502 1-916): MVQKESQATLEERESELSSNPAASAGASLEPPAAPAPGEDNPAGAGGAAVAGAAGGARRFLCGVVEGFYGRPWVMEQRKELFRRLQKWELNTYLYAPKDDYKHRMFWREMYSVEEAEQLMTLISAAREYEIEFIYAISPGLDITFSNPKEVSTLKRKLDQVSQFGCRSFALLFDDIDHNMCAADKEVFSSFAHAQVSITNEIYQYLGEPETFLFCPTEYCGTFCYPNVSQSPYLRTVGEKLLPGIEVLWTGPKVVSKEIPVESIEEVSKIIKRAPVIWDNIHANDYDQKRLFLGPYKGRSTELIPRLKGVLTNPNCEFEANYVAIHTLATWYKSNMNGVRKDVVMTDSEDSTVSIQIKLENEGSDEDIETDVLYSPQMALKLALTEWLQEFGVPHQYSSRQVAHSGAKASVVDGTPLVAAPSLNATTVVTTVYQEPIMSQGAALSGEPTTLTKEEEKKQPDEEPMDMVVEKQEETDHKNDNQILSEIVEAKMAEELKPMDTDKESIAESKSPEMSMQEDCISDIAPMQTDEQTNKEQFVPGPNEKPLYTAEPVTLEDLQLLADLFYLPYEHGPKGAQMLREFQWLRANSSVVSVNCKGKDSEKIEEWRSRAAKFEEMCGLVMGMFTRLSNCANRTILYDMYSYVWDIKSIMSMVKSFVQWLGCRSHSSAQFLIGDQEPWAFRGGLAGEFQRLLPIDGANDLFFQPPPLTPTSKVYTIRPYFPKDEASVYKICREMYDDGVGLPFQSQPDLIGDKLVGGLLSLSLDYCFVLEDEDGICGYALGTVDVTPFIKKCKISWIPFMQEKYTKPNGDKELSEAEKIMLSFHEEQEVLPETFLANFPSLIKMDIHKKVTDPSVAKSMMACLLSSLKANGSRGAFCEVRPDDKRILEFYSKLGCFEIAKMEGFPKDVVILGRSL
Briefly: Assay for determination of K1 values for inhibition of O-GlcNAcase activity. The conditions noted are these: pNP-GlcNAc 0.5 mM, PBS buffer pH 7.4, 37° C., Dixon plots. The class given is biochemical. The method, then:
Assay for Determination of […] for Inhibition of O-GlcNAcase Activity Experimental procedure for kinetic analyses: Enzymatic reactions were carried out in PBS buffer (pH 7.4) using pNP-GlcNAc as a substrate (0.5 mM) and monitored continuously at 37° C. at 400 nm using a Cary 3E UV-VIS spectrophotometer equipped with a Peltier temperature controller. Reactions were pre-heated in a 500 μl, quartz cuvette for approximately 5 minutes followed by addition of 10 μL enzyme via syringe (final enzyme concentration 0.002 mg/mL). Reaction velocities were determined by linear regression of the linear region of the reaction progress curve between the first and third minutes. An inhibitor concentration range of ⅕ to 5 times K1 was used in each case. […] All K1 values are determined using linear regression of Dixon plots.

For a further experiment, the system named is 3T3-L1 cells. Briefly: Western blot of cellular levels of O-GlcNAc-modified proteins in 3T3-L1 cells. The class given is cell-based. The conditions noted are these: 100 μM, 16 hours, anti-O-GlcNAc mAb CTD110.6, compared to control. The method, then: FIGS. 1A-B show Western blots of proteins from 3T3-L1 cells cultured for 16 hours in the presence or absence of 100 μM of Compound 1 (Table 1). Incubation of 3T3-L1 cells with Compound 1 causes an increase in cellular levels of O-GlcNAc-modified proteins; plus signs (“+”) indicate presence of Compound 1, while minus signs (“−”) indicate absence of Compound 1. FIG. 1A: Western blot analysis of cellular levels of O-GlcNAc-modified proteins using anti-O-GlcNAc MAb CTD 110.6 followed by an anti-mouse IgG-HRP conjugate.
Western Blot Analyses: 3T3-L1 adipocytes were treated with Compound 1 at 100 μM for 16 hours. Cells were harvested by adding 400 μL of 1% SDS with 50 mM beta-ME, boiling this for 10 minutes, using these lysates in subsequent Western blots. Briefly, samples were separated by SDS-PAGE (10% gels), transferred to nitrocellulose membrane (Bio-Rad), blocked for one hour at room temperature (RT) with 1% bovine serum albumin (BSA) in PBS containing 0.1% Tween-20 (PBS-T) and then subsequently probed with the appropriate primary antibody delivered in 1% BSA in PBS-T for overnight at 4° C. […]
In general terms: Immunoblotting shows a protein as a band on a membrane.

“Also recorded” adds a separate entry of the source.

One may read the Ki as the equilibrium dissociation constant of an inhibitor or competing ligand from its target.

Regarding `CC(=O)N[C@H]1CN2CC[C@H](O)[C@@H]2[C@@H](O)[C@@H]1O` [Compound 1], at O-GlcNAcase, the affinity corresponds to a Ki of 670 nM. Also, in the experiment on 3T3-L1 cells, the “cellular levels of O-GlcNAc-modified proteins” value was “Marked increases; also recorded: increase”.
